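These data come from cells grown in 96-well plates and exposed to compound for 48 hours at five concentrations. At the GI50, growth is halved.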 Active and inactive are the calls of the source. No stated cut-off is given here; in the data, active = GI50 up to about 1.1 µM and inactive = higher.
Columns and labels:
Test in all cases: NCI anticancer screen, dose series, 48 h
[1] = system: ACHN
[2] = system: TK-10
[3] = system: HL-60
[4] = system: UACC-257
[5] = system: OVCAR-3
[6] = system: A549
[7] = system: CCRF-CEM
[8] = system: DU-145
[9] = system: MDA-MB-231
[10] = system: UACC-62
[11] = system: OVCAR-8
[12] = system: SNB-75
[13] = system: SK-OV-3
[14] = system: SK-MEL-5
[15] = system: HOP-92
[16] = system: HCC 2998
[17] = system: SK-MEL-2
[18] = system: SF-539
[19] = system: K562
[20] = system: SF-295

Structure (SMILES): CC(C)(CN1CCCCC1)C(=O)CC(SCCS(=O)(=O)O)c1ccc(Cl)cc1 (stereo not given)
- GI50 [1]: 5.11 µM (inactive)
- GI50 [2]: 6.32 µM (inactive)
- GI50 [3]: 6.18 µM (inactive)
- GI50 [4]: 6.67 µM (inactive)
- GI50 [5]: 5.22 µM (inactive)
- GI50 [6]: 6.56 µM (inactive)
- GI50 [7]: 2.74 µM (inactive)
- GI50 [8]: 9.75 µM (inactive)
- GI50 [9]: 3.1 µM (inactive)
- GI50 [10]: 4.21 µM (inactive)
- GI50 [11]: 3.23 µM (inactive)
- GI50 [12]: 4.32 µM (inactive)
- GI50 [13]: 15.5 µM (inactive)
- GI50 [14]: 7.41 µM (inactive)
- GI50 [15]: 2.26 µM (inactive)
- GI50 [16]: 12.3 µM (inactive)
- GI50 [17]: 2.22 µM (inactive)
- GI50 [18]: 2.3 µM (inactive)
- GI50 [19]: 3.09 µM (inactive)
- GI50 [20]: 0.925 µM (active)

Structure (SMILES): CC(C)(C)C1(COC(=O)c2ccc(N)cc2)COC1
- GI50 [1]: 78.7 µM (inactive)
- GI50 [2]: > 100 µM (inactive)
- GI50 [3]: 26.3 µM (inactive)
- GI50 [4]: 43.5 µM (inactive)
- GI50 [5]: 26.3 µM (inactive)
- GI50 [6]: 52.6 µM (inactive)
- GI50 [7]: 46 µM (inactive)
- GI50 [8]: > 100 µM (inactive)
- GI50 [9]: 52.1 µM (inactive)
- GI50 [10]: 55 µM (inactive)
- GI50 [11]: 58.3 µM (inactive)
- GI50 [12]: 76.6 µM (inactive)
- GI50 [13]: 58.1 µM (inactive)
- GI50 [14]: 58.7 µM (inactive)
- GI50 [15]: > 100 µM (inactive)
- GI50 [16]: 57.5 µM (inactive)
- GI50 [17]: > 100 µM (inactive)
- GI50 [18]: 32.4 µM (inactive)
- GI50 [19]: 46.3 µM (inactive)
- GI50 [20]: 29.1 µM (inactive)

Structure (SMILES): CCC1C(c2ccccc2O)c2cc3c(cc2OC1N1CCOCC1)OCO3 (stereo not given)
- GI50 [1]: 13.3 µM (inactive)
- GI50 [2]: 13.9 µM (inactive)
- GI50 [3]: 18.2 µM (inactive)
- GI50 [4]: 16 µM (inactive)
- GI50 [5]: 12.5 µM (inactive)
- GI50 [6]: 14.4 µM (inactive)
- GI50 [7]: 13.9 µM (inactive)
- GI50 [8]: 14.8 µM (inactive)
- GI50 [9]: 16.8 µM (inactive)
- GI50 [10]: 13.1 µM (inactive)
- GI50 [11]: 20.8 µM (inactive)
- GI50 [12]: 8.53 µM (inactive)
- GI50 [13]: 22.2 µM (inactive)
- GI50 [14]: 16.7 µM (inactive)
- GI50 [15]: 13 µM (inactive)
- GI50 [16]: 17.3 µM (inactive)
- GI50 [17]: 15.5 µM (inactive)
- GI50 [18]: 16.3 µM (inactive)
- GI50 [19]: 11.5 µM (inactive)
- GI50 [20]: 14.9 µM (inactive)

Structure (SMILES): Cc1cccc2c1NC(=O)/C2=N\Nc1ccccc1[N+](=O)[O-]
- GI50 [1]: 2.97 µM (inactive)
- GI50 [2]: 6.84 µM (inactive)
- GI50 [3]: 78.5 µM (inactive)
- GI50 [4]: 13.8 µM (inactive)
- GI50 [5]: 8.13 µM (inactive)
- GI50 [6]: 4.49 µM (inactive)
- GI50 [7]: 6.3 µM (inactive)
- GI50 [8]: 17.7 µM (inactive)
- GI50 [9]: 2.58 µM (inactive)
- GI50 [10]: 14.5 µM (inactive)
- GI50 [11]: 3.85 µM (inactive)
- GI50 [12]: 11.1 µM (inactive)
- GI50 [13]: 4.34 µM (inactive)
- GI50 [14]: 6.93 µM (inactive)
- GI50 [15]: 2.38 µM (inactive)
- GI50 [16]: 7.11 µM (inactive)
- GI50 [17]: 16.7 µM (inactive)
- GI50 [18]: 2.12 µM (inactive)
- GI50 [19]: 17.5 µM (inactive)
- GI50 [20]: 4.24 µM (inactive)

Structure (SMILES): C=C1CC2(OC1=O)c1ccccc1C=Cc1ccccc12
- GI50 [1]: 4.8 µM (inactive)
- GI50 [2]: 5.86 µM (inactive)
- GI50 [3]: 0.661 µM (active)
- GI50 [4]: 5.14 µM (inactive)
- GI50 [5]: 4.61 µM (inactive)
- GI50 [6]: 9.42 µM (inactive)
- GI50 [7]: 0.697 µM (active)
- GI50 [8]: 11.5 µM (inactive)
- GI50 [9]: 2.26 µM (inactive)
- GI50 [10]: 5.13 µM (inactive)
- GI50 [11]: 5.21 µM (inactive)
- GI50 [12]: 9.18 µM (inactive)
- GI50 [13]: 16.9 µM (inactive)
- GI50 [14]: 7.33 µM (inactive)
- GI50 [15]: 1.61 µM (inactive)
- GI50 [16]: 6.95 µM (inactive)
- GI50 [17]: 8.65 µM (inactive)
- GI50 [18]: 2.83 µM (inactive)
- GI50 [19]: 1.2 µM (inactive)
- GI50 [20]: 18 µM (inactive)

Structure (SMILES): COc1ccccc1Cn1c2c(c3c(C(=O)NCCN(C)C)c(O)ccc31)C(=O)c1ccccc1C2=O
- GI50 [1]: 1.64 µM (inactive)
- GI50 [2]: 1.61 µM (inactive)
- GI50 [3]: 1.01 µM (active)
- GI50 [4]: 1.79 µM (inactive)
- GI50 [5]: 1.99 µM (inactive)
- GI50 [6]: 1.82 µM (inactive)
- GI50 [7]: 0.298 µM (active)
- GI50 [8]: 1.81 µM (inactive)
- GI50 [9]: 1.99 µM (inactive)
- GI50 [10]: 1.83 µM (inactive)
- GI50 [11]: 2.14 µM (inactive)
- GI50 [12]: 1.55 µM (inactive)
- GI50 [13]: 6.52 µM (inactive)
- GI50 [14]: 1.74 µM (inactive)
- GI50 [15]: 1.17 µM (inactive)
- GI50 [16]: 1.66 µM (inactive)
- GI50 [17]: 1.69 µM (inactive)
- GI50 [18]: 1.9 µM (inactive)
- GI50 [19]: 0.977 µM (active)
- GI50 [20]: 1.87 µM (inactive)

From ChEMBL document CHEMBL1201862, “PubChem BioAssay data set” (2004)
